# Experimental data from PubChem BioAssay (NCI).
# Where “and” joins values, the source holds several entries; their conditions need not be identical. Equal entries are not always repeated.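 Compound exposure: 48 hours, 5 concentrations, 96-well plates. GI50 is the concentration that inhibits growth by half. The concentration for full growth arrest is given as TGI.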 Where a SMILES comes first, the peptide text is derived from it. The star is where a group is joined. Boc = CC(C)(C)OC(=O)*; nBu = CCCC*
# Key:
# Assay in all cases: NCI tumour cell line growth inhibition, 48 h
# DU-145 prostate = system: DU-145 prostate
# LOX IMVI melanoma = system: LOX IMVI melanoma
# MALME-3M melanoma = system: MALME-3M melanoma
# MDA-MB-231 breast = system: MDA-MB-231 breast
# NCI-H226 lung = system: NCI-H226 lung
# NCI-H460 lung = system: NCI-H460 lung
# SF-295 CNS = system: SF-295 CNS
# SNB-19 CNS = system: SNB-19 CNS
# T-47D breast = system: T-47D breast
# TK-10 renal = system: TK-10 renal
# EKVX NSCLC = system: EKVX NSCLC
SMILES,TGI (DU-145 prostate),TGI (LOX IMVI melanoma),TGI (MALME-3M melanoma),TGI (MDA-MB-231 breast),TGI (NCI-H226 lung),TGI (NCI-H460 lung),TGI (SF-295 CNS),TGI (SNB-19 CNS),TGI (T-47D breast),TGI (TK-10 renal),TGI (EKVX NSCLC),GI50 (NCI-H226 lung),GI50 (DU-145 prostate),GI50 (MALME-3M melanoma),GI50 (MDA-MB-231 breast),GI50 (NCI-H460 lung),GI50 (SF-295 CNS),GI50 (SNB-19 CNS),GI50 (T-47D breast),GI50 (TK-10 renal)
N#C/C(=C(/O)CCl)c1nc2ccccc2o1,> 100 µM,4.15 µM,29.1 µM,9.41 µM,5.07 µM,14.3 µM,6.74 µM,> 100 µM,44.6 µM,> 100 µM,,,,,,,,,,
CC1(C)OC[C@@H]([C@@]2(COC(c3ccccc3)(c3ccccc3)c3ccccc3)CC=CC(=O)O2)O1,> 100 µM,> 100 µM,> 100 µM,> 100 µM,> 100 µM,> 100 µM,> 100 µM,> 100 µM,> 100 µM,> 100 µM,83.8 µM,,,,,,,,,
Oc1ccccc1C=Nc1ccc(-c2nc3ccccc3s2)cc1,> 100 µM,> 100 µM,> 100 µM,,99.1 µM,83.5 µM,55.9 µM,> 100 µM,84.8 µM,71.4 µM,85.2 µM,,,,,,,,,
O=C(Cc1nc2ccccc2[nH]c1=O)c1c[nH]c2ccccc12,> 100 µM,> 100 µM,> 100 µM,54.2 µM,31.3 µM,32.4 µM,35 µM,> 100 µM,47.6 µM,34.1 µM,> 100 µM,,,,,,,,,
Cc1cc(-c2nc3c(F)cccc3s2)ccc1N,> 100 µM,> 100 µM,> 100 µM,> 100 µM,> 100 µM,,> 100 µM,,,,31.5 µM,5.45 µM,,,,,,,,
C=C1C(O)C2(O)OCC34C(CC5C(C)=CC(=O)C(O)C5(C)C23)OC(=O)C(OC(=O)C/C=C/CCCCCCCC)C14 (configuration not stated),,2 µM,0.0229 µM,,0.029 µM,,,0.0335 µM,,,0.027 µM,,,,,,,,,
COC(=O)/C=C\C(C#N)(C#N)N=Cc1ccc(OC)cc1,17 µM,11.4 µM,4.01 µM,37.7 µM,25.3 µM,42.5 µM,53 µM,> 62.7 µM,4.53 µM,6.73 µM,32 µM,,,,,,,,,
COc1ccc(C2C3CCc4ccccc4C3=NN2S(=O)(=O)c2cccc(C(=O)O)c2OC)cc1 (configuration not stated),> 100 µM,> 100 µM,> 100 µM,> 100 µM,> 100 µM,> 100 µM,35.1 µM,> 100 µM,> 100 µM,> 100 µM,> 100 µM,,,,,,,,,
CC(C)CC(N)C(=O)NC(C(=O)NC(CCCNC(=N)N)C(=O)NC(CS)C(=O)NC1CSCC(C(=O)NC(Cc2ccccc2)C(=O)NC(C(=O)NC(CCCNC(=N)N)C(=O)O)C(C)C)NC(=O)C2CCCN2C(=O)C(CCCCN)NC(=O)C2CCCN2C(=O)C2CCCN2C(=O)C(Cc2ccc(O)cc2)NC(=O)C(CO)NC(=O)C(CCCCN)NC(=O)C(C(C)O)NC(=O)C(Cc2c[nH]c3ccccc23)NC1=O)C(C)C (configuration not stated),> 25 µM,> 25 µM,> 25 µM,> 25 µM,> 25 µM,,> 25 µM,> 25 µM,> 25 µM,> 25 µM,> 25 µM,,,,,,,,,
COC(=O)c1c(O)ccc2c1c1cc3ccccc3c(O)c1n2CCc1ccc(OC)c(OC)c1,> 100 µM,,> 100 µM,> 100 µM,> 100 µM,> 100 µM,> 100 µM,> 100 µM,> 100 µM,> 100 µM,> 100 µM,,,,,,,,,
Cc1c(-c2ccccc2)[nH]c2cn[nH]c(=O)c12,> 100 µM,> 100 µM,> 100 µM,> 100 µM,,> 100 µM,> 100 µM,> 100 µM,,> 100 µM,> 100 µM,,,,,,,,,
CCCCOc1ccc(CC(NC(=O)OC(C)(C)C)C(=O)NC(C)C(=O)NC(Cc2ccccc2)C(=O)NCC(N)=O)cc1 (configuration not stated) (Boc-Y(nBu)AFG-NH2; configuration not given here),> 100 µM,> 100 µM,> 100 µM,> 100 µM,> 100 µM,> 100 µM,> 100 µM,> 100 µM,> 100 µM,> 100 µM,,,,,,,,,,
Cc1ccc(-c2cn3c(nc4ccccc43)c(/C=C/c3ccco3)n2)cc1,> 100 µM,> 100 µM,> 100 µM,> 100 µM,> 100 µM,> 100 µM,,> 100 µM,> 100 µM,> 100 µM,,,,,,,,,,
C/C(C=O)=C/[C@@]1(C)O[C@@H](C)[C@@](C)(O)[C@@H]1O,> 100 µM,> 100 µM,> 100 µM,> 100 µM,> 100 µM,64 µM,> 100 µM,> 100 µM,> 100 µM,> 100 µM,> 100 µM,,,,,,,,,
C#C[C@]1(O)CC[C@H]2[C@@H]3CCc4cc(O)ccc4[C@H]3CC[C@@]21C,,> 100 µM,> 100 µM,,92.8 µM,82.5 µM,74.8 µM,> 100 µM,,> 100 µM,> 100 µM,,,,,,,,,
O=C(Nc1ccccc1)Oc1ccc(C(=S)Nc2ccc(Br)cc2)cc1,81.8 µM,24.8 µM,65.1 µM,,,59.3 µM,84.3 µM,,75.1 µM,,31.1 µM,,,,,,,,,

SMILES,TGI (DU-145 prostate),TGI (LOX IMVI melanoma),TGI (MALME-3M melanoma),TGI (MDA-MB-231 breast),TGI (NCI-H226 lung),TGI (NCI-H460 lung),TGI (SF-295 CNS),TGI (SNB-19 CNS),TGI (T-47D breast),TGI (TK-10 renal),TGI (EKVX NSCLC),GI50 (NCI-H226 lung),GI50 (DU-145 prostate),GI50 (MALME-3M melanoma),GI50 (MDA-MB-231 breast),GI50 (NCI-H460 lung),GI50 (SF-295 CNS),GI50 (SNB-19 CNS),GI50 (T-47D breast),GI50 (TK-10 renal)
O=C1c2c(Br)sc(Br)c2[C@@H](O)[C@H]1O,30.7 µM,34.1 µM,40.6 µM,31.4 µM,37.7 µM,31.8 µM,35.1 µM,38.3 µM,43.7 µM,> 100 µM,34 µM,,,,,,,,,
CN(C)c1ccc(-c2ccc(-c3ccc(C(=N)N)cn3)o2)cc1,3.18 µM,,3.93 µM,3.77 µM,,3.05 µM,3.81 µM,3.64 µM,3.67 µM,3.39 µM,,,1.72 µM,2.04 µM,1.8 µM,1.35 µM,2 µM,1.87 µM,1.73 µM,1.95 µM
COc1ccc(N2C(=O)C(=O)C3(CCCCC3)C2=O)c2ccccc12,> 10 µM,> 10 µM,> 10 µM,> 10 µM,> 10 µM,> 10 µM,> 10 µM,> 10 µM,> 10 µM,> 10 µM,> 10 µM,,,,,,,,,
O=c1c2cc(O)ccc2n2nnc3ccc(NCCNCCO)c1c32,,13.4 µM and 10.2 µM,20.5 µM and 11.5 µM,,26.7 µM and 11.5 µM,> 57.4 µM and 23.6 µM,> 45.5 µM and 35.2 µM,39.4 µM and 29.1 µM,,> 50 µM and 60.8 µM,97 µM and 48.1 µM,,,6.02 µM and 2.56 µM,,28.9 µM and 4.01 µM,,,,3.75 µM and 9.62 µM
CC(=O)c1ccc(Nc2c3ccccc3nc3occc23)cc1,5.39 µM,> 100 µM,29.4 µM,0.541 µM,45.2 µM,0.453 µM,,> 100 µM,32.8 µM,15.7 µM,> 45.9 µM,,,,,,,,,
O=[N+]([O-])c1ccc(N=Nc2c(O)[nH]c3ccccc23)c([N+](=O)[O-])c1,30.1 µM,20.7 µM,,29.9 µM,75.5 µM,37.4 µM,25.1 µM,51 µM,52.8 µM,27.4 µM,20.7 µM,,,,,,,,,
COc1ccccc1-c1c(C#N)c(N)[nH]c(=S)c1C#N,> 100 µM,> 100 µM,> 100 µM,> 100 µM,> 100 µM,> 100 µM,> 100 µM,> 100 µM,,> 100 µM,> 100 µM,,,,,,,,,
Cc1ccc(-c2cc(-c3ccc(Cl)cc3)nc(/N=C3\C(=O)N(CN(C)C)c4ccccc43)n2)cc1,97.8 µM,58.5 µM,> 100 µM,> 100 µM,> 100 µM,> 100 µM,> 100 µM,> 100 µM,> 100 µM,> 100 µM,> 100 µM,,,,,,,,,
Nc1nc(SCC(=O)c2ccc(Br)cc2)c2[nH]cnc2n1,> 100 µM,> 100 µM,> 100 µM,> 100 µM,> 100 µM,> 100 µM,> 100 µM,> 100 µM,98.7 µM,56.8 µM,> 100 µM,,,,,,,,,
COc1cccc(C23CCN(C)C(CC(O)C2)C3)c1OC (configuration not stated),> 100 µM,> 100 µM,> 100 µM,> 100 µM,> 100 µM,,> 100 µM,> 100 µM,> 100 µM,> 100 µM,> 100 µM,,,,,,,,,
CN1CCC(C(O)(c2ccccc2)c2ccc(Br)cc2)CC1 (configuration not stated),> 100 µM,32.9 µM,27.6 µM,48.8 µM,59.5 µM,62.5 µM,45.7 µM,> 100 µM,78.3 µM,98.7 µM,> 100 µM,,,,,,,,,
O=P(NCCCO)(OCc1ccccc1)N(CCCl)CCCl (configuration not stated),,> 100 µM,> 100 µM,,> 100 µM,> 100 µM,> 100 µM,> 100 µM,,,,,,,,,,,,
COc1ccc2nc3cc(Cl)ccc3c(NCCCN3CCN(CCCNc4ccc5nnn6c7ccccc7c(=O)c4c56)CC3)c2c1,> 25 µM,> 25 µM,,> 18.2 µM,> 25 µM,> 25 µM,> 25 µM,> 25 µM,> 25 µM,> 25 µM,> 25 µM,,,,,,,,,
COc1ccc(CCn2cncn2)cc1,,,,,> 100 µM,> 100 µM,> 100 µM,> 100 µM,,> 100 µM,> 100 µM,,,,,,,,,
CCCCCCCCCCCCCCCc1nc(=S)[nH][nH]1,,> 100 µM,> 100 µM,,,> 100 µM,,> 100 µM,,> 100 µM,> 100 µM,,,,,,,,,
CCOc1nc2c(N3CCCC3)nc(N3CCNCC3)nc2nc1NCc1ccccc1,6.84 µM,2.97 µM,3.3 µM,2.84 µM,3.82 µM,2.91 µM,3.37 µM,3.45 µM,3.13 µM,5.58 µM,4.33 µM,,,,,,,,,
